PMC11509018, “Evaluation of the Role of Tanshinone I in an In Vitro System of Charcot-Marie-Tooth Disease Type 2N” (International Journal of Molecular Sciences, 2024)

Molecular target: T1, AlaRS E337K binding to GST-Nrp1 b1 (Homo sapiens, UniProt P49588, E337K)
T1 construct: made in house; host or cells: E. coli BL21 (DE3), pET-21a for AlaRS
T1 sequence (P49588 1-968 E337K): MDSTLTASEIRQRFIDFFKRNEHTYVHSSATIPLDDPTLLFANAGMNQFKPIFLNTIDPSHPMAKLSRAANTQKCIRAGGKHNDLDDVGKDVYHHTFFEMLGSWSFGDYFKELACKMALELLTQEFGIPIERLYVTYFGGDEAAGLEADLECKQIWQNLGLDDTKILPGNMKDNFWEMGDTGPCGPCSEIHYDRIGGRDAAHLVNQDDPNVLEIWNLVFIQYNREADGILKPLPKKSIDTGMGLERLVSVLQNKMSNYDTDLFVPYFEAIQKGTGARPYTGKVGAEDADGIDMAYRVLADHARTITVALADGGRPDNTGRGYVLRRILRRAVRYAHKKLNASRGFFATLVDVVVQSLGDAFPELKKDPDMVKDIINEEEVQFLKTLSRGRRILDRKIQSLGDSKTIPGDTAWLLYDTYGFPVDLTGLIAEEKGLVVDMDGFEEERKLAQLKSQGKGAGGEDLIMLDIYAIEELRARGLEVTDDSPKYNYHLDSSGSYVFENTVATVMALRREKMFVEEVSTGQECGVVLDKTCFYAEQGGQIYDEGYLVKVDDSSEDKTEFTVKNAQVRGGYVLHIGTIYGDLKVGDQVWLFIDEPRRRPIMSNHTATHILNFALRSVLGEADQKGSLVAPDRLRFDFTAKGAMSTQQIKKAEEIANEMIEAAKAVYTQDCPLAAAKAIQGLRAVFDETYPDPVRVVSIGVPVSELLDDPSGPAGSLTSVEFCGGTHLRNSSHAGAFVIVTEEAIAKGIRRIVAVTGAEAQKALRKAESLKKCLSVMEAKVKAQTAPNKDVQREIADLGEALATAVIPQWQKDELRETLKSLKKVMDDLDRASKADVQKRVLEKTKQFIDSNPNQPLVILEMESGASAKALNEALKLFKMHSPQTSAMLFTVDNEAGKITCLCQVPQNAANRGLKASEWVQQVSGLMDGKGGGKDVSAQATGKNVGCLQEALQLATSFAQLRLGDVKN
Assay: GST pull down assay
Details: 20 µM Tanshinone I, ImageJ, average of three repeats

In the case of `Cc1coc2c1C(=O)C(=O)c1c-2ccc2c(C)cccc12` [Tanshinone I], the “Mean density band (E337K), relative quantification of AlaRS mutant pulled down” value was 0.90.
